Measurements from ChEMBL document CHEMBL4765259, “Synthesis and biological evaluation of novel shikonin-benzo[b]furan derivatives as tubulin polymerization inhibitors targeting the colchicine binding site” (Eur J Med Chem, 2020).
pIC50: −log10 of the molar value.

Legend:
[1] = system: HT-29; assay: Induction of apoptosis in human HT-29 cells assessed as viable cells at 1 uM measured after 24 hrs by Annexin V-FITC/propidium iodide staining based flow cytometry (reference value: 97.7 %); type: functional; settings: read-out: Activity
[2] = system: HT-29; assay: Induction of apoptosis in human HT-29 cells assessed as late apoptotic cells at […] measured after 24 hrs by Annexin V-FITC/propidium iodide staining based flow cytometry (reference value: 0.5 %); type: functional; settings: dose 0.25 µM
[3] = system: HT-29; assay: Cell cycle arrest in human HT29 cells assessed as cell accumulation at G1 phase at […] incubated for 24 hrs by propidium iodide staining based flow cytometry (reference value: 70.33 %); type: functional; settings: dose 0.25 µM
[4] = system: HT-29; assay: Cell cycle arrest in human HT29 cells assessed as cell accumulation at S phase at 0.5 uM incubated for 24 hrs by propidium iodide staining based flow cytometry (reference value: 17.15 %); type: functional
[5] = Antiproliferative activity against human HEK293T cells incubated for 48 hrs by MTT assay; type: cell-based, HEK-293T
[6] = system: K562; assay: Antiproliferative activity against drug resistant human K562 cells incubated for 48 hrs by MTT assay; type: functional, cell-based; settings: K562, 48 h
[7] = system: MCF7; assay: cells; settings: Homo sapiens, MCF7, 48 h
Description: Antiproliferative activity against drug-resistant human MCF7 cells incubated for 48 hrs by MTT assay

[8] = Antiproliferative activity against human LO2 cells incubated for 48 hrs by MTT assay; type: cell-based, L02
[9] = system: HT-29; assay: Cell cycle arrest in human HT29 cells assessed as cell accumulation at G1 phase at 0.5 uM incubated for 24 hrs by propidium iodide staining based flow cytometry (reference value: 70.33 %); type: functional
[10] = system: HT-29; assay: Induction of apoptosis in human HT-29 cells assessed as viable cells at […] measured after 24 hrs by Annexin V-FITC/propidium iodide staining based flow cytometry (reference value: 97.7 %); type: functional; settings: dose 0.25 µM, read-out: Activity
[11] = system: HT-29; assay: Induction of apoptosis in human HT-29 cells assessed as early apoptotic cells at 0.5 uM measured after 24 hrs by Annexin V-FITC/propidium iodide staining based flow cytometry (reference value: 1.1 %); type: functional
[12] = system: HT-29; assay: Antiproliferative activity against human HT29 cells incubated for 48 hrs by MTT assay; type: functional, cell-based; settings: HT-29, 48 h
[13] = system: HT-29; assay: Cell cycle arrest in human HT29 cells assessed as cell accumulation at S phase at 1 uM incubated for 24 hrs by propidium iodide staining based flow cytometry (reference value: 17.15 %); type: functional
[14] = system: HT-29; assay: Cell cycle arrest in human HT29 cells assessed as cell accumulation at G2 phase at 1 uM incubated for 24 hrs by propidium iodide staining based flow cytometry (reference value: 12.53 %); type: functional
[15] = system: HT-29; assay: Induction of apoptosis in human HT-29 cells assessed as early apoptotic cells at […] measured after 24 hrs by Annexin V-FITC/propidium iodide staining based flow cytometry (reference value: 1.1 %); type: functional; settings: dose 0.25 µM
[16] = system: HT-29; assay: Induction of apoptosis in human HT-29 cells assessed as viable cells at 0.5 uM measured after 24 hrs by Annexin V-FITC/propidium iodide staining based flow cytometry (reference value: 97.7 %); type: functional; settings: read-out: Activity
[17] = system: HT-29; assay: Induction of apoptosis in human HT-29 cells assessed as necrotic cells at 1 uM measured after 24 hrs by Annexin V-FITC/propidium iodide staining based flow cytometry (reference value: 0.7 %); type: functional
[18] = system: HT-29; assay: Induction of apoptosis in human HT-29 cells assessed as late apoptotic cells at 1 uM measured after 24 hrs by Annexin V-FITC/propidium iodide staining based flow cytometry (reference value: 0.5 %); type: functional
[19] = system: HT-29; assay: Cell cycle arrest in human HT29 cells assessed as cell accumulation at G2 phase at […] incubated for 24 hrs by propidium iodide staining based flow cytometry (reference value: 12.53 %); type: functional; settings: dose 0.25 µM
[20] = system: HT-29; assay: Cell cycle arrest in human HT29 cells assessed as cell accumulation at G1 phase at 1 uM incubated for 24 hrs by propidium iodide staining based flow cytometry (reference value: 70.33 %); type: functional
[21] = system: HT-29; assay: Cell cycle arrest in human HT29 cells assessed as cell accumulation at G2 phase at 0.5 uM incubated for 24 hrs by propidium iodide staining based flow cytometry (reference value: 12.53 %); type: functional
[22] = system: HepG2; assay: Antiproliferative activity against human HepG2 cells incubated for 48 hrs by MTT assay; type: functional, cell-based; settings: HepG2, 48 h
[23] = system: HT-29; assay: Induction of apoptosis in human HT-29 cells assessed as necrotic cells at […] measured after 24 hrs by Annexin V-FITC/propidium iodide staining based flow cytometry (reference value: 0.7 %); type: functional; settings: dose 0.25 µM
[24] = system: HT-29; assay: Induction of apoptosis in human HT-29 cells assessed as necrotic cells at 0.5 uM measured after 24 hrs by Annexin V-FITC/propidium iodide staining based flow cytometry (reference value: 0.7 %); type: functional
[25] = system: HT-29; assay: Induction of apoptosis in human HT-29 cells assessed as late apoptotic cells at 0.5 uM measured after 24 hrs by Annexin V-FITC/propidium iodide staining based flow cytometry (reference value: 0.5 %); type: functional
[26] = system: MDA-MB-231; assay: cells; settings: Homo sapiens, MDA-MB-231, 48 h
[27] = system: A549; assay: cells; settings: Homo sapiens, A549, 48 h
[28] = system: HCT-116; assay: cells; settings: Homo sapiens, HCT-116, 48 h
Description: Antiproliferative activity against human HCT116 cells incubated for 48 hrs by MTT assay

[29] = system: MCF7; assay: cells; settings: Homo sapiens, MCF7, 48 h; remark: listed apart in the source
[30] = system: HT-29; assay: Induction of apoptosis in human HT-29 cells assessed as early apoptotic cells at 1 uM measured after 24 hrs by Annexin V-FITC/propidium iodide staining based flow cytometry (reference value: 1.1 %); type: functional
[31] = system: K562; assay: cells; settings: Homo sapiens, K562, 48 h
Description: Antiproliferative activity against human K562 cells incubated for 48 hrs by MTT assay

[32] = system: HT-29; assay: Cell cycle arrest in human HT29 cells assessed as cell accumulation at S phase at […] incubated for 24 hrs by propidium iodide staining based flow cytometry (reference value: 17.15 %); type: functional; settings: dose 0.25 µM
[33] = Mean residence time (0 to infinity) in Sprague-Dawley rat at 1.5 mg/kg, iv by UPLC/MS analysis; type: ADME, organism-based; settings: in vivo
[34] = AUC (0 to infinity) in Sprague-Dawley rat at 1.5 mg/kg, iv by UPLC/MS analysis; type: ADME, organism-based; design: time infinity, route intravenous, dose 1.5 mg/kg; settings: in vivo
[35] = Half life in Sprague-Dawley rat at 1.5 mg/kg, iv by UPLC/MS analysis; type: ADME, organism-based; settings: in vivo
[36] = Apparent volume of distribution in Sprague-Dawley rat at 1.5 mg/kg, iv by UPLC/MS analysis; type: ADME, organism-based; settings: in vivo, read-out: Vz

Work on CC(C)=CC[C@@H](O)C1=CC(=O)c2c(O)ccc(O)c2C1=O [SHIKONIN] yielded a viability at 1 µM [1] of 76.7%, an Activity [2] of 0.7% and an Activity [3] of 52.4%. The Activity [4] was 27.08%, the CC50 at 48 h [5] was 7 µM and the pIC50 [6] was 3.92. The pIC50 [7] was 4.63, the CC50 at 48 h [8] was 11.8 µM and the Activity [9] was 50.02%. For the same molecule, the viability at […] [10] was 91%, the Activity [11] was 11.9% and the pIC50 [12] was 5.55. It also gave an Activity [13] of 43.57%, an Activity [14] of 24.51% and an Activity [15] of 7.1%. It also gave a viability at 0.5 µM [16] of 87%, an Activity [17] of 0.6% and an Activity [18] of 3.2%. The Activity [19] was 19.5%, the Activity [20] was 32.11% and the Activity [21] was 22.9%. For the same molecule, the pIC50 [22] was 5.53, the Activity [23] was 1.2% and the Activity [24] was 0.7%. For the same molecule, the Activity [25] was 0.4%, the pIC50 [26] was 5.56 and the pIC50 [27] was 4.99. The pIC50 [28] was 5.61, the pIC50 [29] was 5.27 and the Activity [30] was 19.5%. The pIC50 [31] was 4.69 and the Activity [32] was 28.1%.
Work on COc1ccc2cc(C(=O)O[C@H](CC=C(C)C)C3=CC(=O)c4c(O)ccc(O)c4C3=O)oc2c1 yielded an MRT inf [33] of 5.12 h, an AUC(0-inf) [34] of 2160 ng·h/mL and a half-life [35] of 3.81 h. For the same molecule, the Vd [36] was 3.35 L/kg.
COc1cccc2c1C(=O)c1c(O)c3c(c(O)c1C2=O)C[C@@](O)(C(=O)CO)C[C@@H]3O[C@H]1C[C@H](N)[C@H](O)[C@H](C)O1 [DOXORUBICIN] gave a pIC50 [6] of 4.79 and a pIC50 [31] of 6.68.
